Measured values: patent US20160000750A1, “COMBINATION OF EGCG OR METHYLATED EGCG AND A PDE INHIBITOR” (KYUSHU UNIVERSITY, NATIONAL UNIVERSITY CORPORATION, priority 2010, published 2016)

How the values were obtained:
TLR 4 = test: TLR4 expression in RAW 264.7 by Western blotting; type: cell-based, mouse; conditions: vardenafil 5 μM, EGCG 10 μM added after 3 hours, 24 hours, untreated = 100
Experimental: (§1) A mouse macrophage cell line, RAW 264.7, was seeded in a 5-mL dish at 1×10^5 cells/mL and was pre-cultured in a DMEM medium supplemented with 1% FCS for 24 hours. Subsequently, vardenafil was added thereto at a concentration of 5 μM. After 3 hours, EGCG was added thereto at a concentration of 0 μM or 10 μM. After 24 hours, the cells were collected, and the expressions of Toll-like receptor (TLR) 2 and TLR 4 were measured by Western blotting.

[1] = system: Toll-like receptor (TLR) 2; test: TLR2 expression in RAW 264.7 by Western blotting; type: cell-based, mouse; conditions: vardenafil 5 μM, EGCG 10 μM added after 3 hours, 24 hours, untreated = 100
Experimental: as §1

**Q.** Which results are given for `CCCc1nc(C)c2c(=O)[nH]c(-c3cc(S(=O)(=O)N4CCN(CC)CC4)ccc3OCC)nn12` [vardenafil]?
**A.** TLR4 expression level(%) (TLR 4): 112%; TLR2 expression level(%) [1]: 112%
